Reference: US12371428B2 (Exelixis, Inc., priority 2019, dated 2025)

Assays:
[1] = target: Human MET (residues 956-1390) (Homo sapiens (Human), UniProt P08581); assay: Human Met kinase assay, HTRF KinEase (Example D-2); type: biochemical; details: protocol of Example D-2 (other compounds); read-out: c-Met IC50
Summary of the method: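 MET kinase domain (956-1390), 0.1 ng/well, in buffer with 5 mM MgCl2, 1 mM DTT and 1 mM MnCl2, phosphorylated a biotinylated peptide at ATP Km for 40 min at RT; 10 concentrations, 3% DMSO final. EDTA-stopped HTRF read after 60 min; IC50 from a 4-parameter logistic fit.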

[2] = target: KDR (phospho-KDR, VEGF165-stimulated HUVEC cells) (Homo sapiens (Human), UniProt P35968); assay: KDR autophosphorylation ELISA in HUVEC cells (Example G); type: cell-based; details: cellular activity; KDR autophosphorylation ELISA in HUVEC cells
Chain of KDR (phospho-KDR, VEGF165-stimulated HUVEC cells) (P35968 20-1356): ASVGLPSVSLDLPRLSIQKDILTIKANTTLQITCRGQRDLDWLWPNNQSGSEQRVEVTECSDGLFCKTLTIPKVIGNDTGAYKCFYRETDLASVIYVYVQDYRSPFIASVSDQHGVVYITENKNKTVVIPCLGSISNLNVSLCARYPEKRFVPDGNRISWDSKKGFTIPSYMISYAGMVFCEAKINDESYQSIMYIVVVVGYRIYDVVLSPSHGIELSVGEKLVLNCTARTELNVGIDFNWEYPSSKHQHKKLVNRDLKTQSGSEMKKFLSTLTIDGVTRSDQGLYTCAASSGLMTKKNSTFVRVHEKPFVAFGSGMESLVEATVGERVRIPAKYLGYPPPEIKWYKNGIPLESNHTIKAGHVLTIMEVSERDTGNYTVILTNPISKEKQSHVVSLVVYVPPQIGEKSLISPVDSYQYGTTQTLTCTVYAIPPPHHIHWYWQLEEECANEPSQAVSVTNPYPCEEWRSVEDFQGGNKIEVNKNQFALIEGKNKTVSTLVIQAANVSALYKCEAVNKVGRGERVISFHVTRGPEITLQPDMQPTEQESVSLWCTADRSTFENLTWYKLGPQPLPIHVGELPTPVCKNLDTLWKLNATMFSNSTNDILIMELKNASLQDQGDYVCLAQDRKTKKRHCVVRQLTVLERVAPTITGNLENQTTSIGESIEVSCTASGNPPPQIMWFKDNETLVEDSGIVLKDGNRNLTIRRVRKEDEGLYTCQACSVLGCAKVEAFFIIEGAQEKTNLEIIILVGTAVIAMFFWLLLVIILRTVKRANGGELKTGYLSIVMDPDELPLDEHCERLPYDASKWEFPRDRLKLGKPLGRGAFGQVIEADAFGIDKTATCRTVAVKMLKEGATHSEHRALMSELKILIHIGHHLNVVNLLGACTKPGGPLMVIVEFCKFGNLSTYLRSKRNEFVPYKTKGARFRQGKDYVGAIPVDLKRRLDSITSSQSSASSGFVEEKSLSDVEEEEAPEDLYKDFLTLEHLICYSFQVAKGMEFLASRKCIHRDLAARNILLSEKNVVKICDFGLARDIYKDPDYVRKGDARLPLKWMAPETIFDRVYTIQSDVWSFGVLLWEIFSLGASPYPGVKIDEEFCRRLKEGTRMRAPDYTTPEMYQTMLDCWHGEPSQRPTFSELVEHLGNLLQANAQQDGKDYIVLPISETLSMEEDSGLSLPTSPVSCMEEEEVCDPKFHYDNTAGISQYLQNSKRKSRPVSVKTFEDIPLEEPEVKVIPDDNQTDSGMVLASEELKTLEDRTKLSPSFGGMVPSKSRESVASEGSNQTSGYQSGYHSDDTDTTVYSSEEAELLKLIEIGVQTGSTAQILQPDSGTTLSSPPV
Summary of the method: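 Read-out is phospho-KDR measured by ELISA in lysates of VEGF165-stimulated (100 ng/mL, 5 min) HUVEC that were serum-starved 24 h and then pre-exposed 1 h to compound across 8 doses in 0.3% DMSO. Unstimulated lysates defined 0% and stimulated vehicle lysates 100% activity; IC50 values come from 4-parameter logistic regression.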

[3] = target: AXL (phospho-AXL, Gas6-stimulated A-172 glioblastoma cells) (Homo sapiens (Human), UniProt P30530); assay: AXL autophosphorylation ELISA in A-172 cells (Example E); type: cell-based; details: cellular activity; AXL autophosphorylation ELISA in A-172 cells; read-out: Axl IC50
Chain of AXL (phospho-AXL, Gas6-stimulated A-172 glioblastoma cells) (P30530 26-894): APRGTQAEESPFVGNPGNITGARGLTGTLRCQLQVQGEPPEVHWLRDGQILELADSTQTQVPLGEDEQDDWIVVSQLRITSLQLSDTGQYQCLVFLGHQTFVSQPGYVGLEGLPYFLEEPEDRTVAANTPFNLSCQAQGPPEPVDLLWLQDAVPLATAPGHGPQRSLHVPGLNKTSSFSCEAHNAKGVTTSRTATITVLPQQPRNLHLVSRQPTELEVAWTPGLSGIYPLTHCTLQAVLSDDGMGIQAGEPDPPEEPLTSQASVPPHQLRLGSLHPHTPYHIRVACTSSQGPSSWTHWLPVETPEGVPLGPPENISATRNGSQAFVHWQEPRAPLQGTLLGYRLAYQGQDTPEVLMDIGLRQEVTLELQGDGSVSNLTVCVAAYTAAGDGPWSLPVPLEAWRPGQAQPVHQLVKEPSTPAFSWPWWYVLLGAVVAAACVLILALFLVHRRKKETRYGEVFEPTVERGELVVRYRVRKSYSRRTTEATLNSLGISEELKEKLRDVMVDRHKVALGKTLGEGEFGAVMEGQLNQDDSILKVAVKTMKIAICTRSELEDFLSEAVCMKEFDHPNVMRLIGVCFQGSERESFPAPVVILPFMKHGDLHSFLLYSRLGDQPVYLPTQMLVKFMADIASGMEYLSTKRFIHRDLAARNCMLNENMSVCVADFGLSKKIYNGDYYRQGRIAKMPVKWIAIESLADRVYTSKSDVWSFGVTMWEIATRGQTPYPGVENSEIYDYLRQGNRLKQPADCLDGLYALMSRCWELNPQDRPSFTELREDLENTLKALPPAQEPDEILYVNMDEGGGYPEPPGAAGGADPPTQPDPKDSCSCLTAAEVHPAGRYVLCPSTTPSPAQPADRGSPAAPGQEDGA
Summary of the method: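 Phospho-AXL was measured by ELISA in lysates of Gas6-stimulated A-172 cells, starved 24 h in serum-free medium and exposed 1 h to an 8-point compound dilution at 0.3% DMSO.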

Chain of Human MET (residues 956-1390) (P08581 956-1390): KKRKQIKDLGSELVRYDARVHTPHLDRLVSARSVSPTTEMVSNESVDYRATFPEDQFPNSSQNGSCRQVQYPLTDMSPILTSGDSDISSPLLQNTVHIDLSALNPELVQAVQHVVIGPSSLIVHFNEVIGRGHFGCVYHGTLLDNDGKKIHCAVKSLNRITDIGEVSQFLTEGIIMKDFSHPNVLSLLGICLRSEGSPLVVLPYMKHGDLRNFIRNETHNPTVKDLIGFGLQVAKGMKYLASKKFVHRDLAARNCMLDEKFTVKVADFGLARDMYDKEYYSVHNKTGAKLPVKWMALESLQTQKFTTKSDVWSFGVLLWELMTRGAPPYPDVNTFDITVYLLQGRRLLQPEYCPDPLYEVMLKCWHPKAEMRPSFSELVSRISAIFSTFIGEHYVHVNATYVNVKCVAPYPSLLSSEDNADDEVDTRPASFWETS

IC50 [1] | IC50 [2] | IC50 [3] | Structure (SMILES)
< 100 nM | > 300 nM | < 100 nM | COc1cc2nccc(Oc3ncc(NC(=O)c4cn(C5CC5)cc(-c5ccc(F)cc5)c4=O)cc3F)c2cc1OC [Compound 399, 1-cyclopropyl-N-[6-(6,7-dimethoxyquinolin-4-yl)oxy-5-fluoropyridin-3-yl]-5-(4-fluorophenyl)-4-oxopyridine-3-carboxamide]
< 100 nM | > 300 nM |  | COc1cnc2c(Oc3ccc(NC(=O)c4ncc(C)n(-c5ccc(F)cc5)c4=O)cc3)ccnc2c1 [Compound 263, 4-(4-Fluorophenyl)-N-[4-[(7-methoxy-1,5-naphthyridin-4-yl)oxy]phenyl]-5-methyl-3-oxopyrazine-2-carboxamide]
